Assay results reported in patent US12371454B2, “Cyclic peptide compound having Kras inhibitory action” (priority 2019, dated 2025).
Starred links: 1 amine or outer side, 2 acyl side, 3 side chain; linkers in the order of their positions; H or OH if unused. Positions of bridges follow the written chain, without caps; N, C: chain ends. Non-standard residues stand in square brackets, D forms with d. Residues, ends and D or L forms follow the SMILES beside them. *: point of attachment. hPhe(3-Cl-4-CF3) = N[C@@H](CCc1ccc(C(F)(F)F)c(Cl)c1)C(=O)O; hPhe(3-F,4-CF3) = N[C@@H](CCc1ccc(C(F)(F)F)c(F)c1)C(=O)O; NMePhe(3-Cl) = CN[C@@H](Cc1cccc(Cl)c1)C(=O)O; NMePhe(4-Cl) = CN[C@@H](Cc1ccc(Cl)cc1)C(=O)O; X51 = O=C([C@H](Cc1cc(F)cc(I)c1)N[*:1])[*:2]; NMePhe(4-Me) = CN[C@@H](Cc1ccc(C)cc1)C(=O)O; NMedβ3hAla = C[C@H](CC(=O)[*:2])N(C)[*:1]; NMeGly(cPent) = CN[C@H](C(=O)O)C1CCCC1; Pro(4,4-F2) = O=C(O)[C@@H]1CC(F)(F)CN1; NMeY = CN[C@@H](Cc1ccc(O)cc1)C(=O)O; NMeCha = CN[C@@H](CC1CCCCC1)C(=O)O; NMeCba = CN[C@@H](CC1CCC1)C(=O)O; NMeChg = CN[C@H](C(=O)O)C1CCCCC1; NMeD = CN[C@@H](CC(=O)O)C(=O)O; NMeL = CN[C@@H](CC(C)C)C(=O)O; d(β3hA) = C[C@@H](N)CC(=O)O; NMeAbu = CC[C@H](NC)C(=O)O; NMeA = CN[C@@H](C)C(=O)O; NMeAib = CNC(C)(C)C(=O)O; Nle = CCCC[C@H](N)C(=O)O; Piperidide = C1CCN(*)CC1; dNMeA = CN[C@H](C)C(=O)O; Ac5c = NC1(C(=O)O)CCCC1; Aze = O=C(O)[C@@H]1CCN1; Ac4c = NC1(C(=O)O)CCC1; Sar = CNCC(=O)O

Biological target: T1, Kras and SOS1 (biotin-tagged human Kras loaded with GDP, His-tagged human SOS1) (Homo sapiens, UniProt P01116, G12D)
T1 construct: made in house; host or cells: E. coli (stated for Kras only)
Experiment: Protein-protein interaction inhibition between Kras and SOS1 (KrasGl2D-SOS PPI) using AlphaScreen
Type: binding
Conditions: AlphaScreen; biotin-tagged human Kras loaded with GDP, His-tagged human SOS1; read-out: KRAS G12D-SOS PPI IC50
Outline: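 Energy transfer from nickel-chelate donor beads bound to His-SOS1 to streptavidin acceptor beads bound to biotin-Kras, expressed in E. coli and loaded with GDP after purification, was monitored. Donors were excited at 680 nm; singlet oxygen reaching acceptors gave emission read at 520-620 nm.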

T1 sequence (P01116 1-188 isoform P01116-2 G12D): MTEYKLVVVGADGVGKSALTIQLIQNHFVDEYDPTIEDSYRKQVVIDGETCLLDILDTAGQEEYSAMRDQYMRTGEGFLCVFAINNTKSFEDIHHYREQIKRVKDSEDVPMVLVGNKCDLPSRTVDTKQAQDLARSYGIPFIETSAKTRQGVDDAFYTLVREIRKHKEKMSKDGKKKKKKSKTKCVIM

SMILES	IC50 [nM]
CCCC[C@@H]1NC(=O)[C@H](Cc2cc(F)cc(I)c2)NC(=O)CN(C)C(=O)[C@H](Cc2ccc(OC)cc2)N(C)C(=O)[C@@H]2CCN2C(=O)[C@H](C)N(C)C(=O)[C@H]([C@@H](C)CC)NC(=O)[C@H](CC)N(C)C(=O)C[C@@H](C(=O)N2CCCCC2)N(C)C(=O)[C@H](CC(C)C)NC(=O)C(C)(C)N(C)C1=O [Compound 1226] ([NMeAbu]I[NMeA][Aze][NMeY](Me)[Sar][X51][Nle][NMeAib]L[NMeD]-Piperidide; lactam N-11)	15
CC[C@H](C)[C@@H]1NC(=O)[C@H](CC(C)C)N(C)C(=O)C[C@@H](C)NC(=O)[C@H](CC(C)C)N(C)C(=O)C2(CCCC2)NC(=O)[C@@H]2CCCN2C(=O)[C@H](CCc2ccc(C(F)(F)F)c(F)c2)NC(=O)CN(C)C(=O)[C@H](CC2CCCCC2)N(C)C(=O)CN(C)C(=O)CN(C)C1=O [Compound 402] (cyclo([Ac5c][NMeL][d(β3hA)][NMeL]I[Sar][Sar][NMeCha][Sar][hPhe(3-F,4-CF3)]P))	26
CC[C@H](C)[C@@H]1NC(=O)[C@H](C)N(C)C(=O)C[C@@H](C)NC(=O)[C@H](C2CCCC2)N(C)C(=O)C2(CCCC2)NC(=O)[C@@H]2CCCN2C(=O)[C@H](CCc2ccc(C(F)(F)F)c(Cl)c2)NC(=O)[C@@H](C)N(C)C(=O)[C@H](Cc2ccc(Cl)cc2)N(C)C(=O)CN(C)C(=O)CN(C)C1=O [Compound 1065] (cyclo([Ac5c][NMeGly(cPent)][d(β3hA)][NMeA]I[Sar][Sar][NMePhe(4-Cl)][dNMeA][hPhe(3-Cl-4-CF3)]P))	70
CC[C@H](C)[C@@H]1NC(=O)[C@H](C)N(C)C(=O)C[C@@H](C)NC(=O)[C@H](C2CCCC2)N(C)C(=O)C2(CCCC2)NC(=O)[C@@H]2CCCN2C(=O)[C@H](CCc2ccc(C(F)(F)F)c(Cl)c2)NC(=O)CN(C)C(=O)[C@H](Cc2ccc(Cl)cc2)N(C)C(=O)[C@@H]2CCCN2C(=O)CN(C)C1=O [Compound 549] (cyclo([Ac5c][NMeGly(cPent)][d(β3hA)][NMeA]I[Sar]P[NMePhe(4-Cl)][Sar][hPhe(3-Cl-4-CF3)]P))	4
CC[C@H](C)[C@@H]1NC(=O)[C@H](CC(C)C)N(C)C(=O)C[C@@H](C)N(C)C(=O)[C@H](C2CCCCC2)N(C)C(=O)C2(CCC2)NC(=O)[C@@H]2CC(F)(F)CN2C(=O)[C@H](CCc2ccc(C(F)(F)F)c(Cl)c2)NC(=O)CN(C)C(=O)[C@H](Cc2ccc(C)cc2)N(C)C(=O)CN(C)C(=O)CN(C)C1=O [Compound 375] (cyclo([Ac4c][NMeChg][NMedβ3hAla][NMeL]I[Sar][Sar][NMePhe(4-Me)][Sar][hPhe(3-Cl-4-CF3)][Pro(4,4-F2)]))	12
CC[C@H](C)[C@@H]1NC(=O)[C@H](CC(C)C)N(C)C(=O)C[C@@H](C(=O)N(C)C)N(C)C(=O)[C@H](C2CCCC2)N(C)C(=O)C2(CCCC2)NC(=O)[C@H](Cc2cccc(Cl)c2)N(C)C(=O)[C@H](CCc2ccc(C(F)(F)F)c(Cl)c2)NC(=O)CN(C)C(=O)[C@H](CC2CCCCC2)N(C)C(=O)[C@@H]2CCN2C(=O)[C@H](C)N(C)C1=O [Compound 179] ([NMeL]I[NMeA][Aze][NMeCha][Sar][hPhe(3-Cl-4-CF3)][NMePhe(3-Cl)][Ac5c][NMeGly(cPent)][NMeD]-NMe2; lactam N-11)	42
CC[C@H](C)[C@@H]1NC(=O)[C@H](CC(C)C)N(C)C(=O)C[C@@H](C)NC(=O)[C@H](CC)N(C)C(=O)C2(CCCC2)NC(=O)[C@@H]2CCCN2C(=O)[C@H](CCc2ccc(C(F)(F)F)c(F)c2)NC(=O)CN(C)C(=O)[C@H](CC2CCCCC2)N(C)C(=O)CN(C)C(=O)CN(C)C1=O [Compound 1469] (cyclo([Ac5c][NMeAbu][d(β3hA)][NMeL]I[Sar][Sar][NMeCha][Sar][hPhe(3-F,4-CF3)]P))	230
CC[C@H](C)[C@@H]1NC(=O)[C@H](CC(C)C)N(C)C(=O)C[C@@H](C)N(C)C(=O)[C@H](CC(C)C)NC(=O)C(C)(C)N(C)C(=O)[C@H](CC(C)C)NC(=O)[C@H](CCc2ccc(C(F)(F)F)c(Cl)c2)NC(=O)CN(C)C(=O)[C@H](Cc2ccc(C)cc2)N(C)C(=O)[C@@H]2CCN2C(=O)CN(C)C1=O [Compound 1386] (cyclo([Aze][NMePhe(4-Me)][Sar][hPhe(3-Cl-4-CF3)]L[NMeAib]L[NMedβ3hAla][NMeL]I[Sar]))	10
CC[C@H](C)[C@@H]1NC(=O)[C@H](CC(C)C)N(C)C(=O)C[C@@H](C)N(C)C(=O)[C@H](CC2CCC2)N(C)C(=O)C2(CCCC2)NC(=O)[C@@H]2CCCN2C(=O)[C@H](CCc2ccc(C(F)(F)F)c(Cl)c2)NC(=O)CN(C)C(=O)[C@H](CC2CCCCC2)N(C)C(=O)CN(C)C(=O)CN(C)C1=O [Compound 723] (cyclo([Ac5c][NMeCba][NMedβ3hAla][NMeL]I[Sar][Sar][NMeCha][Sar][hPhe(3-Cl-4-CF3)]P))	17
